Data: US8980906B2, “Pyridonemorphinan analogs and biological activity on opioid receptors” (Purdue Pharma L.P., priority 2012, dated 2015)

What was measured:
κ-opioid receptor = κ-opioid receptor (Homo sapiens (Human), UniProt P41145); experiment: κ-opioid receptor [35S]GTPγS functional assay, HEK-293 or CHO cells; format: biochemical; conditions: for Emax: relative to U69,593, HEK-293 or CHO cells
δ-opioid receptor = δ-opioid receptor (Homo sapiens (Human), UniProt P41143); experiment: δ-opioid receptor radioligand dose-displacement binding assay ([3H]-Naltrindole); conditions: binding affinity, [3H]-Naltrindole displacement
Method: δ-Opioid Receptor Binding Assay Procedures: δ-Opioid Receptor Binding Assay Procedures were conducted as follows. Radioligand dose-displacement assays used 0.2 nM [^3H]-Naltrindole (Perkin Elmer, Shelton, Conn.; 33.0 Ci/mmole) with 5 μg membrane protein (Perkin Elmer, Shelton, Conn.) in a final volume of 500 μl binding buffer (5 mM MgCl2, 5% DMSO, 50 mM Trizma base, pH 7.4). Non-specific binding was determined in the presence of 25 μM unlabeled naloxone. All reactions were performed in 96-deep well polypropylene plates for 1 hour at a temperature of about 25° C. Binding reactions were terminated by rapid filtration onto 96-well Unifilter GF/C filter plates (Perkin Elmer, Shelton, Conn.) presoaked in 0.5% polyethylenimine (Sigma). Harvesting was performed using a 96-well tissue harvester (Perkin Elmer, Shelton, Conn.) followed by five filtration washes with 500 μl ice-cold binding buffer. Filter plates were subsequently dried at 50° C. for 1-2 hours. Fifty μl/well scintillation cocktail (Perkin Elmer, Shelton, Conn.) was added and plates were counted in a Packard Top-Count for 1 min/well.

μ-opioid receptor = μ-opioid receptor (Homo sapiens (Human), UniProt P35372); experiment: μ-opioid receptor [35S]GTPγS functional assay, HEK-293 or CHO cells; format: biochemical

Chain of δ-opioid receptor (P41143 whole entry, looked up): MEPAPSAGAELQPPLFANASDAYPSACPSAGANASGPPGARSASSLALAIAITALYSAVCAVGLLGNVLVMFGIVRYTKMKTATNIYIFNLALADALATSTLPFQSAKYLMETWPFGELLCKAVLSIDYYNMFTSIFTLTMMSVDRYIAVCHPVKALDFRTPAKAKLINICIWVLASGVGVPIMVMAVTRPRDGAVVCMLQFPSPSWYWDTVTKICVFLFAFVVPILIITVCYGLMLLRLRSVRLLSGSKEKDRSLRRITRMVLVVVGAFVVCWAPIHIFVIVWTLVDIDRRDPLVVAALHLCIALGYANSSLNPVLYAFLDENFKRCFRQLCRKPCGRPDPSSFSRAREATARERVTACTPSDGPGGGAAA

Row | SMILES | EC50 (κ-opioid receptor) [nM] | Emax (κ-opioid receptor) [%] | Ki (δ-opioid receptor) [nM] | EC50 (μ-opioid receptor) [nM]
1 | NC(=O)c1cc2c([nH]c1=O)C[C@]13CCN(CC4CC4)[C@H](Cc4ccc(O)cc41)[C@]3(O)C2 [Compound 5, (6R,6aS,12aR)-15-(cyclopropylmethyl)-2,6a-dihydroxy-10-oxo-6,6a,7,10,11,12-hexahydro-5H-6,12a-(epiminoethano)naphtho[2,1-g]quinoline-9-carboxamide] | 4.37 ± 1.11 | 10.2 ± 1.18 | 26.4 ± 7.23 | > 20000
2 | O=C(O)c1cc2c([nH]c1=O)C[C@]13CCN(CC4CC4)[C@H](Cc4ccc(O)cc41)[C@]3(O)C2 [Compound 9, (6R,6aS,12aR)-15-(cyclopropylmethyl)-2,6a-dihydroxy-10-oxo-6,6a,7,10,11,12-hexahydro-5H-6,12a-(epiminoethano)naphtho[2,1-g]quinoline-9-carboxylic acid] | > 20000 | 2.33 ± 1.33 | 18.5 ± 2.14 | > 20000
3 | O=C(O)c1cc2c([nH]c1=O)C[C@]13CCN(CC4CC4)[C@H](Cc4ccc(O)cc41)[C@@H]3C2 [Compound 11, (6R,6aR,12aS)-15-(cyclopropylmethyl)-2-hydroxy-10-oxo-6,6a,7,10,11,12-hexahydro-5H-6,12a-(epiminoethano)naphtho[2,1-g]quinoline-9-carboxylic acid] | 1.4 ± 0.56 | 19 ± 1.53 | – | > 20000
